Test results published in PMC12292521, “Discovery of a Potent Antimicrobial Peptide Through Rational Design: A New Frontier in Pathogen Control” (Biomolecules, 2025).
≈ marks a conversion by molar mass, not a printed value. Peptide text beside a SMILES is read from it.

Legend:
[1] = Conformational stability by CD and fluorescence spectroscopy in SDS; format: physicochemical
Procedure: The secondary structure elements of the antimicrobial molecule were analyzed in a 0.1 cm optical path-length quartz cuvette (Hellma Analytics, Milan, Italy) using Jasco J-810 Circular Dichroism Spectropolarimeter (JASCO, Tokyo, Japan). All spectra were recorded at 25 °C in a wavelength range of 190–250 nm with a 1 nm bandwidth, a scanning speed of 20 nm/min, and averaged over five scans. The spectra as a function of SDS concentration (3, 50, and 150 mM) were obtained at 50 μM final concentration of peptide in 10 mM Tris-HCl buffer, pH 7.0. The folding kinetic analysis of the peptide was carried out after the addition of SDS (50 mM) to the sample (50 μM in 10 mM Tris-HCl, pH 7.0), up to 24 h incubation. […] Next, 50 mM of SDS was added to each sample, which was analyzed by CD spectroscopy after 48 h of incubation at 25 °C. […] All CD spectra of RKW were corrected by subtracting a blank spectrum of a sample containing all components except the peptide (baseline correction). The mean residue ellipticity ([θ], deg. cm^2 dmol^−1) was obtained by the equation [θ] = 100 θ/cnl, where θ is the ellipticity (mdeg), c is the peptide concentration (mM), n is the number of residues, and l is the path length (cm).
Fluorescence experiments were conducted in a Shimadzu RF-6000 spectrofluorometer (Kyoto, Japan). The analyses were performed by setting an excitation and emission slit width of 5 nm and using a quartz cell with a path length of 1 cm. The intrinsic tryptophan residues were excited at a wavelength of 280 nm, following the emission between 300 and 400 nm. The effects of SDS on the peptide folding, the folding kinetics, and the thermal and the pH stability were monitored as described in Section 2.2.

[2] = tested on: Campylobacter jejuni; format: cell-based; conditions: 6 h
Procedure: (§1) To assess the antimicrobial potential of the designed peptide, different strains of Gram-negative and Gram-positive bacteria were evaluated. Pseudomonas aeruginosa was an ATCC (27853) strain, while Escherichia coli, Listeria monocytogenes, Staphylococcus aureus, Campylobacter jejuni, Salmonella Typhimurium, the monophasic variant of Salmonella Typhimurium and Salmonella Napoli were isolated from food products by the Laboratory of Microbiological Food Control—Department of Food Microbiology of the Istituto Zooprofilattico Sperimentale del Mezzogiorno (IZSM) in Portici (Naples, Italy).
(§2) In accordance with the Clinical & Laboratory Standards Institute guidelines (CLSI, 2015), the Minimum Bactericidal Concentration (MBC), defined as the minimum concentration of peptide required to kill 99.9% of the tested bacterial suspension within a defined time interval, was determined. L. monocytogenes, E. coli, S. aureus, S. Typhimurium, monophasic variant of S. Typhimurium, S. Napoli, and P. aeruginosa were cultured at 37 °C in buffered peptone water (Thermo Fisher, Milan, Italy), while C. jejuni was cultured in Bolton Broth (Oxoid, Madrid, Spain). The bacterial suspension was collected and then diluted in fresh broth to a final concentration of 1.0 × 10^3 or 1.0 × 10^5 colony-forming units (CFUs)/mL. […] Samples containing only cell suspension and DMSO were used as controls. […]

[3] = tested on: Salmonella Napoli; format: cell-based; conditions: 6 h
Procedure: as §1, §2

[4] = tested on: S. aureus (MRSA) biofilm; assay: Antibiofilm activity (crystal violet); format: cell-based, Staphylococcus aureus; conditions: RKW at ½ and ¼ MIC (25 and 12.5 μM); OD 630 nm vs control; three independent experiments; ANOVA p < 0.01; greatest inhibition at ¼ MIC
Procedure: Therefore, the minimum inhibitory concentration (MIC) and MBC were evaluated. […] Subsequently, the antibiofilm activity of the peptide was tested according to Festa et al.. Specifically, two different concentrations of peptide were used, corresponding to ½ and ¼ of the estimated MIC value, which guarantee the optimal bacterial growth conditions necessary to allow biofilm production. Biofilm production (%) was calculated based on Optical Density (measured at 630 nm) outputs, compared to the control group.
To compare the percentages of biofilm production across different samples, a one-way analysis of variance (ANOVA) was conducted using Prism v. 10.0 (GraphPad, Graph-Pad Software, La Jolla, CA, USA). Significant differences between sample pairs were identified with Tukey’s post hoc test (p < 0.05).

[5] = 100 µM peptide, 37 °C, 24 h, RP-HPLC C18, absorbance 280 nm, peak area vs time 0, three independent studies
Procedure: A total of 3.7 mg of peptide was dissolved in 1 mL of Milli-Q H2O to obtain a 2 mM stock solution. A 5% solution of Newborn Calf Serum (NCS) was prepared in Dulbecco’s phosphate-buffered saline (DPBS) (v/v) and then subjected to heat-inactivation by incubating the solution at 57 °C for 45 min (Hi-NCS). Therefore, 100 µM of peptide was incubated in 5% Hi-NCS at 37 °C for 24 h in DPBS. […] Therefore, the samples were centrifuged at 13,000 rpm for 5 min, and the supernatants were diluted in an equal volume of water. Finally, 200 µL of the collected solutions were loaded onto a μBondapak reversed-phase C18 column (Waters, 3.9 mm × 300 mm) connected to an HPLC system (Shimadzu, Milan, Italy), using a linear gradient of acetonitrile (5–95%) in water containing 0.1% TFA at a flow rate of 1 mL/min, and absorbance was detected at 280 nm. […] Samples containing only Hi-NCS were also analyzed. The same experiments were performed in the presence of NCS, not subjected to the heat inactivation treatment. Results are the average of three independent studies.

CC[C@H](C)[C@H](NC(=O)[C@H](Cc1c[nH]c2ccccc12)NC(=O)[C@H](CCCCN)NC(=O)[C@@H](N)CCCNC(=N)N)C(=O)N[C@@H](CC(C)C)C(=O)N[C@@H](CCCCN)C(=O)N[C@@H](Cc1c[nH]c2ccccc12)C(=O)N[C@@H](CC(C)C)C(=O)N[C@@H](CCCNC(=N)N)C(=O)N[C@H](C(=O)N[C@@H](Cc1c[nH]c2ccccc12)C(=O)N[C@@H](CCCCN)C(=O)N[C@@H](CCCCN)C(N)=O)[C@@H](C)O [RKW] (H-RKWILKWLRTWKK-NH2; N-terminus assumed)
α-helical conformation over time in SDS ([1]; 50 μM peptide, 10 mM Tris-HCl pH 7.0, 50 mM SDS, 25 °C, up to 24 h, CD and fluorescence): did not markedly change its α-helical conformation
Helical content at extreme acidic pH ([1]; 50 μM peptide, 10 mM glycine-HCl pH 2.0, 50 mM SDS, 48 h at 25 °C, CD): entirely disordered
Structural and folding stability in SDS micellar solution under other pH and temperature conditions ([1]; 50 μM peptide, 50 mM SDS, pH 7.0 and 11.0 at 25 °C, 4, 37 and 90 °C at pH 7.0, 48 h, CD and fluorescence): not markedly affected
Time the α-helical conformation remains stable in a wide range of pH and temperature ([1]; membrane-like environment (SDS), abstract): at least 48 h
MBC [2]: 80 µM (≈ 147 µg/mL)
MBC [3]: 20 µM (≈ 36.8 µg/mL)
Biofilm production [4]: significantly inhibited the biofilm production
Stability of RKW in heat-inactivated serum (Hi-NCS) ([5]; 5% Hi-NCS (57 °C, 45 min) in DPBS): no peptide breakage
Stability of RKW in serum, not heat-inactivated (NCS) ([5]; 5% NCS in DPBS): complete degradation pattern
